Structures can show the parent of a compound that is named as a salt.
Tests used:
[1] = tested on: epileptics and individuals with bipolar disorders; settings: per day; usual minimum anti-convulsant dose; cited from earlier work
[2] = tested on: patients who had symptoms of ADHD; assay: Clinical study with anti-epileptic mood stabilisers alone in patients with symptoms of ADHD (Example 3); format: in vivo, human; settings: for patient-reported improvements (self and other rating scales, clinical assessments): monotherapy without stimulant, topiramate 12.5-50 mg/day, Phenytoin 30-60 mg/day, valproate same dose range as combined treatment
Text: The improvements assessed using self and other rating scales objective psychometric tool together with repeated clinical assessments.

[3] = tested on: ADHD patients
Protocol: A. Topiramate in Combination with Dexamphetamine (n=11)
The third trial clinical has been with phenytoin and a psychostimulant (n=8). Phenytoin is less often used for its psychoactive properties than either valproate or topiramate. […] The assessment methods were as per the trials with valproate and topiramate.
C. Phenytoin in Combination with Dexamphetamine (n=6)
E. Sodium Valproate in Combination with Methylphenidate (n=4) • Sodium Valproate: average 1.6 mg/kg/day (130 mg/day) • Methylphenidate: average 1.2 mg/kg/day (84 mg/day)

[4] = tested on: adults with ADHD
Protocol: The initial dosages used were from 15 to 70 mg/day of dexamphetamine and from 100 to 700 mg/day of VPA (Epilim) (=approximately 2 to 10 mg/kg/day).
The determination of the dose for the dexamphetamine was undertaken in a clinical sensitive open label manner. The dose was titrated upwards dependent on the clinical response and the freedom from side-effects. The dose range was between 15 and 70 mg a day. The frequency of the dosing also varied dependent upon the clinical response. The usual dose interval was between two to four hours. This dosing adjustment took place prior to the commencement of the sodium valproate. The sodium valproate medication was initiated once a day at 50 mg tablet or elixir and titrated upwards dependent on response, but not more than one increase every three days. The dose was given as a once or twice a day regime. During the titration phase, if clinically possible, no other adjustments to the pharmacotherapy were undertaken.
The dosages of sodium valproate, after adjustment, varied between 50 mg/day, 100 mg/day, 150 mg/day or 200 mg/day (number of patients—120), with the majority of patients receiving between 50 to 150 mg/day with […] usually the maximum.
The results were assessed using the Conners Adult ADHD Rating scales completed by the patient and observer (usually partner or parent). In a sample of 26 patients who completed self CAARS rating scales at; pre treatment, stable on stimulant and stable on anti-epileptic drug (AED).

[5] = tested on: patients with a diagnosis of GAD; assay: Treatment of Generalised Anxiety Disorder (GAD) with low dose AED (Example 5); format: in vivo, human; settings: 50 to 150 mg, without co-administration of a stimulant
Protocol: The diagnostic criteria cited for inclusion in this study included reference to excessive anxiety and worry which had been present for at least 6 months and which was difficult to control and associated with difficulty concentrating, becoming easily fatigued, restlessness or feeling keyed up or on edge and sleep disturbance. […] The medication was well tolerated with few side effects at the dose given. The improvement was evaluated using self and observer rating scales together with clinician review. As in the ADHD trials response usually commenced within 3-7 days. Due to the robust and persistent benefit, six months at the time of writing, many of the other psychotropic medications were reduced or even ceased.

[6] = low dose sodium valproate with dexamphetamine

## CCC1(c2ccccc2)C(=O)NC(=O)NC1=O.CNC(C)CC1CCCCC1 [Barbexaclone]
[1]
  Minimum Dose/day effective for mood stabilisation: 200 mg in divided doses

## NC(=O)N1c2ccccc2C=Cc2ccccc21 [Carbamazepine, (Z)-5H-dibenzo[b,f]azepine-5-carboxamide]
[1]
  Minimum Dose/day effective for mood stabilisation: 400 mg

## CN1C(=O)CC(=O)N(c2ccccc2)c2cc(Cl)ccc21 [Clobazam]
[1]
  Minimum Dose/day effective for mood stabilisation: 5 mg/kg daily

## O=C1CN=C(c2ccccc2Cl)c2cc([N+](=O)[O-])ccc2N1 [Clonazepam]
[1]
  Minimum Dose/day effective for mood stabilisation: 1 mg

## CCN1C(=O)OC(C)(C)C1=O [Ethadione]
[1]
  Minimum Dose/day effective for mood stabilisation: 1000 mg

## CCC1(C)CC(=O)NC1=O (centres unmarked) [Ethosuximide]
[1]
  Minimum Dose/day effective for mood stabilisation: 1000 mg

## CCN1C(=O)NC(c2ccccc2)C1=O (centres unmarked) [Ethotoin, 3-ethyl-5-phenyl-imidazolidine-2,4-dione]
[1]
  Minimum Dose/day effective for mood stabilisation: 1000 mg

## NC(=O)OCC(COC(N)=O)c1ccccc1 [Felbamate]
[1]
  Minimum Dose/day effective for mood stabilisation: 1200 mg

## O=C1NC(c2ccccc2)(c2ccccc2)C(=O)N1COP(=O)(O)O [Fosphenytoin Sodium]
[1]
  Minimum Dose/day effective for mood stabilisation: 10 mg/kg

## NCC1(CC(=O)O)CCCCC1 [Gabapentin, 2-[1-(aminomethyl)cyclohexyl]acetic acid]
[1]
  Minimum Dose/day effective for mood stabilisation: 900 mg

## Nc1nnc(-c2cccc(Cl)c2Cl)c(N)n1 [Lamotrigine]
[1]
  Minimum Dose/day effective for mood stabilisation: 100 mg

## CC[C@@H](C(N)=O)N1CCCC1=O [Levetiracetam]
[1]
  Minimum Dose/day effective for mood stabilisation: 1000 mg

## COC1=CC(=O)OC1C(O)c1ccccc1Cl (centres unmarked) [Losigamone]
[1]
  Minimum Dose/day effective for mood stabilisation: 1500 mg

## CCC1(c2ccccc2)NC(=O)N(C)C1=O (centres unmarked) [Mephenytoin]
[1]
  Minimum Dose/day effective for mood stabilisation: 200 mg

## NC(=O)N1c2ccccc2CC(=O)c2ccccc21 [Oxcarbazepine, 10,11-Dihydro-10-oxo-5H-dibenz[b,f]azepine-5-carboxamide]
[1]
  Minimum Dose/day effective for mood stabilisation: 600 mg

## CCC(C(=O)NC(N)=O)c1ccccc1 (centres unmarked) [Pheneturide]
[1]
  Minimum Dose/day effective for mood stabilisation: 600 mg

## O=C1NC(=O)C(c2ccccc2)(c2ccccc2)N1 [Phenytoin, 5,5-diphenylimidazolidine-2,4-dione]
[2]
  patient-reported improvements (self and other rating scales, clinical assessments): improvements in the organisation of thoughts in conversation and reading comprehension
[3]; phenytoin at low dose with a psychostimulant, n=8
  overall effect and tolerability: robust and well tolerated effect in eight patients
[1]
  Minimum Dose/day effective for mood stabilisation: 200 mg

## CC(C)C[C@H](CN)CC(=O)O [Pregabalin, (S)-3-(aminomethyl)-5-methylhexanoic acid]
[1]
  Minimum Dose/day effective for mood stabilisation: 300 mg

## CCC1(c2ccccc2)C(=O)NCNC1=O [Primidone]
[1]
  Minimum Dose/day effective for mood stabilisation: 750 mg

## NC(=O)c1cn(Cc2c(F)cccc2F)nn1 [Rufinamide]
[1]
  Minimum Dose/day effective for mood stabilisation: 400 mg

## NS(=O)(=O)c1ccc(N2CCCCS2(=O)=O)cc1 [Sultiame]
[1]
  Minimum Dose/day effective for mood stabilisation: 200 mg

## Cc1ccsc1C(=CCCN1CCC[C@H](C(=O)O)C1)c1sccc1C [Tiagabine Hydrochloride, (3S)-1-[4,4-bis(3-methylthiophen-2-yl)but-3-enyl]piperidine-3-carboxylic acid]
[1]
  Minimum Dose/day effective for mood stabilisation: 30 mg

## CC1(C)O[C@@H]2[C@@H](CO[C@@]3(COS(N)(=O)=O)OC(C)(C)O[C@@H]23)O1 [Topiramate, 2,3:4,5-Bis-O-(1-methylethylidene)-beta-D-fructopyranose sulfamate]
[2]
  patient-reported improvements (self and other rating scales, clinical assessments): improvements in the organisation of thoughts in conversation and reading comprehension
[2]; topiramate alone 12.5-50 mg/day
  effect on coordination, organisation and motivation: effect on coordination, as well as improved organisation and motivation
[3]; 25 mg increasing to 125 mg daily, with stimulant
  tolerability at initial titration: intolerable side effects and ceasing of medication
[3]; re-titration commencing at 6.25 or 12.5 mg, with stimulant
  Conners' Adult ADHD Rating scales (self and observer), DEM, clinician interview: significant improvements
[1]
  Minimum Dose/day effective for mood stabilisation: 100 mg

## C=CC(N)CCC(=O)O (centres unmarked) [Vigabatrin]
[1]
  Minimum Dose/day effective for mood stabilisation: 1000 mg

## NS(=O)(=O)Cc1noc2ccccc12 [Zonisamide]
[1]
  Minimum Dose/day effective for mood stabilisation: 200 mg

## CCCC(CCC)C(=O)O.[Na] [sodium valproate, sodium di-n-propylacetic acid]
[4]; VPA added to dexamphetamine, dose below that for bipolar disorder
  psychosocial functioning (patient description, clinical review): overall improvement in psychosocial functioning
[4]; in vivo
  adverse effect at higher dosages: general cognitive and a resultant loss of efficacy
  adverse effect at higher doses: general cognitive slowing and the resultant loss of efficacy
[4]; [6]
  oculomotor function, Developmental Eye Movement Test (DEM): has shown improvement
  reading and verbal comprehension abilities (patient report): improvement in their reading and verbal comprehension abilities
[2]
  patient-reported improvements (self and other rating scales, clinical assessments): improvements in the organisation of thoughts in conversation and reading comprehension
[5]
  function and symptoms in Generalised Anxiety Disorder: sustained improvement in function and a reduction in symptoms

Source: US9649297B2, “Treatment of ADHD” (Gosforth Centre (Holdings) Pty Ltd., priority 2007, dated 2017)
